Patent publication US8841309B2, “Substituted pyrazines and their use in the treatment of disease” (Boehringer Ingelheim International GmbH, priority 2012, dated 2014)

target: T1, ENaC (Mus musculus, UniProt Q61180+Q9WU38+Q9WU39); test: Ussing chamber: short circuit current (I_sc) in mouse kidney M-1 cells, amiloride-sensitive; type: cell-based; conditions: compound applied to apical solution, 37° C.
T1 construct: Mouse kidney M-1 cells were cultivated in DMEM containing 5% FCS and 5 μM dexamethasone; endogenous in cells; host or cells: mouse kidney M-1 cells
T1 sequence (Q61180 1-699): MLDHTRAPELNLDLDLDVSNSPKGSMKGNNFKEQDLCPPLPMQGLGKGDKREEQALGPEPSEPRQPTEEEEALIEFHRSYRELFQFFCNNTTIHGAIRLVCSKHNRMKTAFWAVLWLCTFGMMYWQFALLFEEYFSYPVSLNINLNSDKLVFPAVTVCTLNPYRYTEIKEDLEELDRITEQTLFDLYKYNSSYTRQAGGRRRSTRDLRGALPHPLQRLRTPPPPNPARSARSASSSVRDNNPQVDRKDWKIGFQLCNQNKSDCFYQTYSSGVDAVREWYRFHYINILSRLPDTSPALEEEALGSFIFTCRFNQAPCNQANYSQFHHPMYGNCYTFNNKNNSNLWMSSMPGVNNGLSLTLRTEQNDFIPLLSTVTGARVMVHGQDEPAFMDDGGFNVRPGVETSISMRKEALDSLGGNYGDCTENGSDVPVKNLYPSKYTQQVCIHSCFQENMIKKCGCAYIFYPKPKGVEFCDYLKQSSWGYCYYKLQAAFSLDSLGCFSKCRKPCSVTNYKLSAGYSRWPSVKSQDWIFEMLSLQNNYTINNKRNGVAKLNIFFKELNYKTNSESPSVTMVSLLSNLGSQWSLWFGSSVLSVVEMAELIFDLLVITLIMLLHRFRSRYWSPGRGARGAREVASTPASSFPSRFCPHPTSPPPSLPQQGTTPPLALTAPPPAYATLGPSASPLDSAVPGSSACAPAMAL
T1 sequence (Q9WU38 1-638): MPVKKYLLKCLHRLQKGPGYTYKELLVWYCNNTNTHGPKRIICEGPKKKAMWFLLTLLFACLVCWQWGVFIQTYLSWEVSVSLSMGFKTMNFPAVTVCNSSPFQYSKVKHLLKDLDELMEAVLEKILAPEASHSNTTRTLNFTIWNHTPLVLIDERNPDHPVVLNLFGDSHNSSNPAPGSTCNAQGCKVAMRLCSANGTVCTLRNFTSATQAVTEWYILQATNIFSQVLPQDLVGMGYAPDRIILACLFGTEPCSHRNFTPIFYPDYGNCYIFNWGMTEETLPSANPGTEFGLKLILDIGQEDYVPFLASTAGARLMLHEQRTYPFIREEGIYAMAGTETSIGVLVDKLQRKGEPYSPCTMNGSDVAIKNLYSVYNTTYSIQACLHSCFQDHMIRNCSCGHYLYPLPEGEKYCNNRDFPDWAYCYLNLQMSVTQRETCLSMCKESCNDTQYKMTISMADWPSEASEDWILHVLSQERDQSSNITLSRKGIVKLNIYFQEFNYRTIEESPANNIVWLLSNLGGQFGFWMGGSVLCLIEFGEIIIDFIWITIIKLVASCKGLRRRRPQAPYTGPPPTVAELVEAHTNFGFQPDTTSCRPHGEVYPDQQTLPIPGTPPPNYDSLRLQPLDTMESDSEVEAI
T1 sequence (Q9WU39 1-655): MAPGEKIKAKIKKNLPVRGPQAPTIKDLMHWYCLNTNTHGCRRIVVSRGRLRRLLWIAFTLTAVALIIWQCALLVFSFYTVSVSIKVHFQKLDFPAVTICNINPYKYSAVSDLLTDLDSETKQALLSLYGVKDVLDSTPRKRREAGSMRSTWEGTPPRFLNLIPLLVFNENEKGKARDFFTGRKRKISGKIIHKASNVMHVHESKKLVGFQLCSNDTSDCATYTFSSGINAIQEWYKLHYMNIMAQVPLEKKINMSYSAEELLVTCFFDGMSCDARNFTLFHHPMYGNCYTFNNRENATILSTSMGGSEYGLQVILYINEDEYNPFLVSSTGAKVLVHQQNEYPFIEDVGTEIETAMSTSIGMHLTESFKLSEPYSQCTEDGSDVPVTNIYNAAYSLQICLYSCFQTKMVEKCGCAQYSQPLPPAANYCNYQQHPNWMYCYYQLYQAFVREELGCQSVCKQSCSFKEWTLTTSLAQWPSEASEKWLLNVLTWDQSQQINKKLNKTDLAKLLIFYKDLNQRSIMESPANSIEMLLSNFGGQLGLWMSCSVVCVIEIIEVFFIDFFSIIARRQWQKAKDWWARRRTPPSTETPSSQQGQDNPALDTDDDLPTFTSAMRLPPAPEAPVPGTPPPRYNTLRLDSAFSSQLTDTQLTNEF
Procedure: Ussing Chamber: Mouse kidney M-1 cells were cultivated in DMEM containing 5% FCS and 5 μM dexamethasone for 10 to 12 days on polyester transwell filters. Filters were inserted into a teflon-coated well-plate which fit into the in-house ussing chamber system. Prior to measurement the medium of M-1 cells was replaced with Caco-2 transport buffer (Invitrogen, Germany). During measurements, the Ussing chamber temperature was kept at 37° C. Short circuit currents (I_sc) were measured in the voltage-clamp mode using an in-house built amplifier (Boehringer Ingelheim, Biberach) with the software package Lab View for data acquisition and analysis. The transepithelial electrical resistance (TEER) was determined by the application of voltage steps of ±5 mV every 5 sec. Compounds were administered at a final concentration of 3 μM or at increasing concentrations (1-3-10 μM) to the apical solution. At the end of each experiment the amiloride sensitive I_SC was measured by adding 3 μM amiloride to the apical compartment. Results are expressed as inhibition in percent of the amiloride effect or as IC50.

Structure (SMILES)	IC50 [nM]
C[N+]1(CC(=O)Nc2cccc(F)c2)CCC[C@H](NC(N)=NC(=O)c2nc(Cl)c(N)nc2N)C1 (mixture of isomers) [Example 70.4]	31
C[N+]1(CC(=O)NCc2ccc(Cl)cc2)CCC[C@@H](N/C(N)=N/C(=O)c2nc(Cl)c(N)nc2N)C1 (mixture of isomers) [Example 70.5]	45
CCNC(=O)C[N+]1(C)CCC[C@H](N/C(N)=N/C(=O)c2nc(Cl)c(N)nc2N)C1 (mixture of isomers) [Example 70.6]	46
C[N+]1(CC(=O)NCc2ccc(Cl)cc2)CCC[C@H](N/C(N)=N/C(=O)c2nc(Cl)c(N)nc2N)C1 (mixture of isomers) [Example 71.1]	30.6
C[N+]1(Cc2ccccc2)CCC[C@H](N/C(N)=N/C(=O)c2nc(Cl)c(N)nc2N)C1 (stereo in doubt) [Example 71, (S)-1-Benzyl-3-[N′-(3,5-diamino-6-chloro-pyrazine-2-carbonyl)-guanidino]-1-methyl-piperidinium chloride]	81
COC(=O)c1cccc(C[N+]2(C)CCC[C@H](N/C(N)=N/C(=O)c3nc(Cl)c(N)nc3N)C2)c1 (stereo in doubt) [Example 72, (S)-3-[N′-(3,5-Diamino-6-chloro-pyrazine-2-carbonyl)-guanidino]-1-(3-methoxycarbonyl-benzyl)-1-methyl-piperidinium chloride]	122
N/C(=N\C(=O)c1nc(Cl)c(N)nc1N)NC1C[N+]2(CC(=O)O)CCC1CC2 (stereo not shown) [Example 1, 1-Carboxymethyl-3-[N′-(3,5-diamino-6-chloro-pyrazine-2-carbonyl)-guanidino]-1-azoniabicyclo[2.2.2]octane bromide]	468
COc1cc(C[N+]23CCC(CC2)C(N/C(N)=N/C(=O)c2nc(Cl)c(N)nc2N)C3)cc(OC)c1OC (stereo not shown) [Example 2, 3-[N′-(3,5-Diamino-6-chloro-pyrazine-2-carbonyl)-guanidino]-1-(3,4,5-trimethoxybenzyl)-1-azoniabicyclo[2.2.2]octane chloride]	126
N/C(=N\C(=O)c1nc(Cl)c(N)nc1N)NC1C[N+]2(CC(=O)Nc3ccccc3)CCC1CC2 (stereo not shown) [Example 3, 3-[N′-(3,5-Diamino-6-chloro-pyrazine-2-carbonyl)-guanidino]-1-phenylcarbamoylmethyl-1-azoniabicyclo[2.2.2]octane chloride]	26
N/C(=N\C(=O)c1nc(Cl)c(N)nc1N)NC1C[N+]2(Cc3ccccc3)CCC1CC2 (stereo not shown) [Example 4, 1-Benzyl-3-[N′-(3,5-diamino-6-chloro-pyrazine-2-carbonyl)-guanidino]-1-azoniabicyclo[2.2.2]octane bromide]	43
N/C(=N\C(=O)c1nc(Cl)c(N)nc1N)N[C@H]1C[N+]2(Cc3ccccc3)CCC1CC2 [Example 5, (R)-1-Benzyl-3-[N′-(3,5-diamino-6-chloro-pyrazine-2-carbonyl)-guanidino]-1-azoniabicyclo[2.2.2]octane bromide]	460
N/C(=N\C(=O)c1nc(Cl)c(N)nc1N)N[C@@H]1C[N+]2(Cc3ccccc3)CCC1CC2 [Example 6, (S)-1-Benzyl-3-[N′-(3,5-diamino-6-chloro-pyrazine-2-carbonyl)-guanidino]-1-azoniabicyclo[2.2.2]octane bromide]	28
N/C(=N\C(=O)c1nc(Br)c(N)nc1N)N[C@@H]1C[N+]2(Cc3ccccc3)CCC1CC2 [Example 6.1, (S)-1-Benzyl-3-[N′-(3,5-diamino-6-bromo-pyrazine-2-carbonyl)-guanidino]-1-azoniabicyclo[2.2.2]octane bromide]	29
COc1ccc(C[N+]23CCC(CC2)[C@H](N/C(N)=N/C(=O)c2nc(Cl)c(N)nc2N)C3)cc1 [Example 7, (S)-3-[N′(3,5-Diamino-6-chloro-pyrazine-2-carbonyl)-guanidino]-1-(4-methoxybenzyl)-1-azoniabicyclo[2.2.2]octane chloride]	20
CC(C)(C)c1ccc(C[N+]23CCC(CC2)[C@H](N/C(N)=N/C(=O)c2nc(Cl)c(N)nc2N)C3)cc1 [Example 8, (S)-1-(4-tert-Butyl-benzyl)-3-[N′-(3,5-diamino-6-chloro-pyrazine-2-carbonyl)-guanidino]-1-azoniabicyclo[2.2.2]octane chloride]	41
NC(=NC(=O)c1nc(Cl)c(N)nc1N)N[C@@H]1C[N+]2(Cc3cccc(SC(F)(F)F)c3)CCC1CC2 [Example 9]	3
NC(=NC(=O)c1nc(Cl)c(N)nc1N)N[C@@H]1C[N+]2(Cc3ccccc3SC(F)(F)F)CCC1CC2 [Example 10]	60
N/C(=N\C(=O)c1nc(Cl)c(N)nc1N)N[C@@H]1C[N+]2(Cc3ccc4ccccc4n3)CCC1CC2 [Example 11, (S)-3-[N′-(3,5-Diamino-6-chloro-pyrazine-2-carbonyl)-guanidino]-1-quinolin-2-ylmethyl-1-azoniabicyclo[2.2.2]octane chloride]	29
N/C(=N\C(=O)c1nc(Cl)c(N)nc1N)N[C@@H]1C[N+]2(Cc3ccc(C(F)(F)F)nc3)CCC1CC2 [Example 12, (S)-3-[N′-(3,5-Diamino-6-chloro-pyrazine-2-carbonyl)-guanidino]-1-(6-trifluoromethyl-pyridin-3-ylmethyl)-1-azonia-bicyclo[2.2.2]octane chloride]	63
N/C(=N\C(=O)c1nc(Cl)c(N)nc1N)N[C@@H]1C[N+]2(Cc3ccccn3)CCC1CC2 [Example 13, (S)-3-[N′-(3,5-Diamino-6-chloro-pyrazine-2-carbonyl)-guanidino]-1-pyridin-2-ylmethyl-1-azoniabicyclo[2.2.2]octane chloride]	90
N/C(=N\C(=O)c1nc(Cl)c(N)nc1N)N[C@@H]1C[N+]2(Cc3ccc(F)cc3)CCC1CC2 [Example 14, (S)-3-[N′-(3,5-Diamino-6-chloro-pyrazine-2-carbonyl)-guanidino]-1-(4-fluoro-benzyl)-1-azoniabicyclo[2.2.2]octane chloride]	28
NC(=NC(=O)c1nc(Cl)c(N)nc1N)N[C@@H]1C[N+]2(Cc3ccc(Cl)cc3)CCC1CC2 [Example 15]	18
COc1cccc(C[N+]23CCC(CC2)[C@H](NC(N)=NC(=O)c2nc(Cl)c(N)nc2N)C3)c1 [Example 16]	14
NC(=NC(=O)c1nc(Cl)c(N)nc1N)N[C@@H]1C[N+]2(Cc3ccc(CO)cc3)CCC1CC2 [Example 17]	52
NC(=NC(=O)c1nc(Cl)c(N)nc1N)N[C@@H]1C[N+]2(Cc3ccc(C(F)(F)F)cc3)CCC1CC2 [Example 18]	43
